The values below come from patent US12398196B2, “Fused polypeptide with multifunctional activities and use thereof” (NANJING ANJI BIOLOGICAL TECHNOLOGY CO., LTD., priority 2019, dated 2025).

In one test the test system is Streptococcus pneumoniae. As to the kind of experiment: Mouse pneumonia model, bacterial pneumonia. Format: in vivo, BALB/C mice. Also on record: unit not given here. The following applies: nasal drip, average values + standard deviation. The text has this:
(§1) A mouse pneumonia model was successfully established by using a nasal drip method. BALB/C mice with a body weight of 18-24 g were selected, and then anesthetized with ether on day 0, day 1 and day 2, respectively, prepared Streptococcus pneumoniae bacteria solution, adenovirus concentrated solution, Mycoplasma pneumoniae, Chlamydia pneumoniae, protozoa and pneumonia fungi were slowly dropped into the nasal cavity of the mice, so that the bacteria solutions entered the trachea and bronchi, and the bacteria solutions were prevented from flowing into the esophagus during the operation to avoid inactivation of the bacteria solutions, so that the mouse pneumonia model was established. After the model was successfully established, the polypeptide according to the present disclosure was administered, as shown in FIG. 9 and Table 7. […] The experimental results are represented on the basis of average values+standard deviation.

The test system of test [1] is SD rats with renal fibrosis. As to the kind of experiment: Renal fibrosis model (ureter ligation). In kind it is in vivo. The following applies: 6 mg/kg s.c. twice a day, 14 days. The protocol:
Clean grade male SD rats, purchased from Nanjing Qinglong Mountain Animal Farm, and weighed 180-200 g at the time of purchase, 190-210 g at the beginning of modeling, and 180-200 g at the beginning of administration.
A renal fibrosis animal model was established. SD rats were anesthetized with 4% chloral hydrate, injected with 1 mL/100 g intraperitoneally, fixed to an operation board, and sterilized in an operation area for later use. […] Muscular layers and abdominal walls were sewed layer by layer, the suture was disinfected with alcohol. After SD rats woke up, the rats were put into a cage for feeding. In the blank group, ureter was not ligated, and other steps were the same.
Then, the animals fell into a blank group, a model group, and polypeptide administration groups, with 10 animals in each group, and the administration was started on the second day after the operation, and was performed for 14 days. After administration for 14 days, blood was taken and supernatant was taken to detect the content of TGF-β1 in serum.

The test system of test [2] is multiple pulmonary infections. As to the kind of experiment: Mouse pneumonia model, pneumonia caused by pulmonary infections. On the set-up: unit not given here. The following applies: nasal drip, average values + standard deviation. Format: in vivo, BALB/C mice.
Text: as §1

A further test concerns Mycoplasma pneumoniae. As to the kind of experiment: Mouse pneumonia model, mycoplasma pneumonia. On the set-up: unit not given here. Conditions: nasal drip, average values + standard deviation. In kind it is in vivo, BALB/C mice.
Text: as §1

A further test has as its system mice with skin fibrosis. As to the kind of experiment: Bleomycin-induced skin fibrosis model. Format: in vivo, C57/BL black mice. Conditions: C57/BL mice, bleomycin s.c. 28 days; 10 mg/kg s.c. twice a day. The protocol:
Male C57/BL black mice aged 6-8 weeks, purchased from Nanjing Qinglong Mountain Animal Farm. Bleomycin (10 μg/mL) was injected subcutaneously every day for 28 days to form skin fibrosis. During the modeling period, the administration groups were given polypeptide drugs twice a day for treatment. After modeling, the mice were killed on the next day, and the skin tissue of the mouse back was taken to detect the content of HYP in the skin tissue. [table]

The subject of test [3] is SD rats with CCl4-induced hepatic fibrosis. As to the kind of experiment: CCl4-induced hepatic fibrosis animal model. Format: in vivo. Conditions: CCl4 8 weeks, polypeptides 6 mg/kg s.c. once a day, colchicine intragastric 5 times/week. The protocol:
Source and strain: SPF level, SD rats, provided by Shanghai Xipuer-Bikai laboratory Animal Co., Ltd. (laboratory animal license: SCXK (hu) 2013-0016)
There were 10 rats in each group. Modeling was performed on the rats. Each group other than the blank group was injected with 40% CCl4 intraperitoneally twice a week, the first injection was performed at 3 mL/kg, and then administration was performed at 2 mL/kg. Administration was performed for 8 weeks, and a total of 16 injections were provided to induce hepatic fibrosis. After the intraperitoneal injection of CCl4 for the fourth time, polypeptide therapy was started on the next day, and administration was performed by subcutaneous injection once a day until the end of induction. After the intraperitoneal injection of CCl4 for the fourth time, colchicine was administrated on the next day at 200 μg/kg, 5 times a week, and intragastric administration therapy was implemented. After induction for 8 weeks, the administration was stopped. On the second day, the SD rats were dissected, blood was taken, and the liver tissue was taken and stored in a refrigerator at −80° C. for later use. The expressions of AST and ALT in serum and HYP in the rat liver tissue were detected.

The subject of the next test is Chlamydia pneumoniae. Description: Mouse pneumonia model, chlamydia pneumonia. In kind it is in vivo, BALB/C mice. The following applies: nasal drip, average values + standard deviation. On the set-up: unit not given here.
Text: as §1

Test [4] has as its system SD rats with bleomycin-induced pulmonary fibrosis. As to the kind of experiment: Bleomycin-induced pulmonary fibrosis animal model. Format: in vivo. The following applies: for Survival rate (%): bleomycin 5 mg/kg intratracheal, polypeptides 10 mg/kg subcutaneous twice a day for 14 days, positive drug Nintedanib intragastric once a day, model group 57.1%; for content of HYP in lung tissues, difference from model group / content of TGF-β1 in serum, difference from model group: polypeptides 10 mg/kg s.c. twice a day, Nintedanib 25 mg/kg intragastric once a day, 14 days. The procedure:
Source and strain: clean SD rats, provided by Comparative Medicine Center of Yangzhou University (laboratory animal production license: SCXK (Su) 2012-0004); Certification of Using of Laboratory Animal: SYXK (Su) 2012-0035).
SD rats were anesthetized by intraperitoneal injection of 1 mL/100 g 4% chloral hydrate. After anesthesia, the rats were fixed and their necks were disinfected by using cotton with 75% alcohol. The skin of the rat neck was longitudinally cut with scissors, and the fascia and muscle were longitudinally bluntly torn with tweezers to expose the trachea. A syringe was inserted into the trachea to inject 5 mg/kg bleomycin, while a blank group was injected with an equal amount of normal saline. Then a rat plate was quickly erected and rotated, the rats' breathing was observed, the neck wound was sterilized after rotation and was sewn, and an amoxicillin anti-inflammatory drug was sprinkled on the suture. After the operation, the rats were put back into a dry and clean cage for resting, waiting was performed for awakening. The rats were awakened after about 1-2 hours, and then fed normally. On the 7th day after modeling, modeling group animals randomly fell into a model group, a Nintedanib positive drug group, polypeptide I, II, III and IV dosage groups, and a normal control group, and the groups were administered separately for an administration cycle of 14 days. Living situations of rats were observed every day and their weights were weighed. After administration for 14 days, the eyeballs were removed and blood was taken, the rats were dissected, and lungs were taken. The content of TGF-β1 in serum and the content of HYP in lung tissues were detected.

The test system of the next test is adenovirus. As to the kind of experiment: Mouse pneumonia model, viral pneumonia. Format: in vivo, BALB/C mice. Also on record: unit not given here. Conditions: nasal drip, average values + standard deviation.
Text: as §1

In test [5] the test system is mice with myocardial fibrosis. As to the kind of experiment: Isoprenaline-induced myocardial fibrosis model. In kind it is in vivo. Conditions: BALB/c mice, isoprenaline 5 mg/kg 7 days; 12 mg/kg s.c. twice a day. The procedure: 1. Experimental Mice: 10-Week-Old Male BALB/c Mice (with an Average Weight of 20 g).
In the model group, the experimental mice were injected with isoprenaline (ISO) (5 mg/kg) subcutaneously on the back of the mice every day for 7 consecutive days, and the mice were injected with normal saline subcutaneously (200 μL/mouse) every day. In the blank group, normal saline was injected subcutaneously (200 μL/mouse) every day. While a model was made, polypeptide drugs were administrated for treatment by subcutaneous injection. After the 8th day, blood was taken and was centrifuged, the supernatant was taken, and the content of TGF-β1 in serum was detected.

For another test, the system named is protozoa. As to the kind of experiment: Mouse pneumonia model, protozoal pneumonia. Conditions: nasal drip, average values + standard deviation. In kind it is in vivo, BALB/C mice. On the set-up: unit not given here.
Text: as §1

For a further test, the system named is pneumonia fungi. Description: Mouse pneumonia model, fungal pneumonia. In kind it is in vivo, BALB/C mice. On the set-up: unit not given here. The following applies: nasal drip, average values + standard deviation.
Text: as §1

Where [6] appears, read: bleomycin-induced pulmonary fibrosis.

Ends that are not written are not given here.

Turning to “PRCYCGEGGGGIVRRADRAAVPGGGGRGD (cysteine pairing not given here) [Polypeptide IV]”, the “Inhibitory effect on pulmonary infections: Bacterial pneumonia” value in the test with Streptococcus pneumoniae was determined as 43.69 ± 8.66. Further, the “content of TGF-β1 in serum, difference from model group” value (“content of TGF-β1 in serum, difference” below) in test [1] is recorded as “highly significantly different from the model group (*** P<0.001)”; in test [4] (setting [6]), “highly significantly different from the model group (** P<0.01)”; in test [5], “highly significantly different from the model group (*P<0.05)”. In test [2], the “Inhibitory effect on pulmonary infections: Pneumonia caused by pulmonary infections” value came to 50.99 ± 6.88. Besides, the “Inhibitory effect on pulmonary infections: Mycoplasma pneumonia” value in the test with Mycoplasma pneumoniae was 41.20 ± 7.30. Besides, the “content of HYP in the skin tissue, difference from model group” value with mice with skin fibrosis is reported as “highly significantly different from the model group (*P<0.05)”. Besides, the “content of AST in serum, difference from model group” value in test [3] is “highly significantly different from the model group (*** P<0.001)”. Besides, in [3], the “content of HYP in the liver tissue, difference from model group” value is on record as “highly significantly different from the model group (*** P<0.001)”. Further, the “Inhibitory effect on pulmonary infections: Chlamydia pneumonia” value in the test with Chlamydia pneumoniae is 45.86 ± 5.22. Besides, in test [4], the “Survival rate (%)” value was determined as 92.9%. Moreover, in [4] (setting [6]), the “content of HYP in lung tissues, difference from model group” value is recorded as “highly significantly different from the model group (** P<0.01)”. In the test with adenovirus, the “Inhibitory effect on pulmonary infections: Viral pneumonia” value is reported as 70.33 ± 9.27. Further, the “Inhibitory effect on pulmonary infections: Protozoal pneumonia” value in the test on protozoa is listed as 62.16 ± 3.28. The “Inhibitory effect on pulmonary infections: Fungal pneumonia” value in the test with pneumonia fungi worked out at 53.22 ± 4.14.
In the case of “PRCYRGEGGGGIVRRADRAAVPGGGGRGD [Polypeptide II]”, the “Inhibitory effect on pulmonary infections: Bacterial pneumonia” value with Streptococcus pneumoniae worked out at 41.25 ± 9.48. For the same sequence, in [1], the “content of TGF-β1 in serum, difference” value is “highly significantly different from the model group (*** P<0.001)”. Besides, the “Inhibitory effect on pulmonary infections: Pneumonia caused by pulmonary infections” value in test [2] stood at 63.15 ± 5.87. In the test with Mycoplasma pneumoniae, the “Inhibitory effect on pulmonary infections: Mycoplasma pneumonia” value is given as 45.69 ± 5.72. Also, the “content of HYP in the skin tissue, difference from model group” value in the test on mice with skin fibrosis is reported as “highly significantly different from the model group (*P<0.05)”. Besides, in test [3], the “content of AST in serum, difference from model group” value is given as “highly significantly different from the model group (*** P<0.001)” and the “content of HYP in the liver tissue, difference from model group” value is “highly significantly different from the model group (*** P<0.001)”. Besides, in the test on Chlamydia pneumoniae, the “Inhibitory effect on pulmonary infections: Chlamydia pneumonia” value is listed as 45.81 ± 5.21. For the same sequence, the “Survival rate (%)” value in test [4] turned out to be 78.6%. In addition, the “reduction of HYP in lung tissues compared with the positive drug” value in [4] (bleomycin-induced pulmonary fibrosis, comparison with Nintedanib) is “better effects than the positive drug”. For the same sequence, in test [4] (setting [6]), the “content of HYP in lung tissues, difference from model group” value is “highly significantly different from the model group (*** P<0.001)” and the “content of TGF-β1 in serum, difference” value is listed as “highly significantly different from the model group (*** P<0.001)”. Moreover, in the test on adenovirus, the “Inhibitory effect on pulmonary infections: Viral pneumonia” value worked out at 50.27 ± 8.08. In addition, the “content of TGF-β1 in serum, difference” value in test [5] was “highly significantly different from the model group (*P<0.05)”. In addition, in the test with protozoa, the “Inhibitory effect on pulmonary infections: Protozoal pneumonia” value stood at 63.60 ± 6.16. In addition, in the test on pneumonia fungi, the “Inhibitory effect on pulmonary infections: Fungal pneumonia” value was 60.32 ± 3.07.
